Among the data in patent US20190322676A1, “CERAMIDE GALACTOSYLTRANSFERASE INHIBITORS FOR THE TREATMENT OF DISEASE” (BioMarin Pharmaceutical Inc., priority 2016, published 2019) are IC50 values, retold here.

Counter-ions that a name gives are not always drawn.

For this test, the target named is T1, human CGT (ceramide galactosyltransferase), CHO/CGT lysate (Homo sapiens, UniProt Q16880).
T1 construct: Full-length human CGT cDNA was cloned into the BamH1/Xho1 site of pcDNA3.1 (+); expressed in transfected cells; host or cells: Chinese hamster ovary (CHO) cells; lysate prepared with M-PER
T1 sequence (Q16880 21-541): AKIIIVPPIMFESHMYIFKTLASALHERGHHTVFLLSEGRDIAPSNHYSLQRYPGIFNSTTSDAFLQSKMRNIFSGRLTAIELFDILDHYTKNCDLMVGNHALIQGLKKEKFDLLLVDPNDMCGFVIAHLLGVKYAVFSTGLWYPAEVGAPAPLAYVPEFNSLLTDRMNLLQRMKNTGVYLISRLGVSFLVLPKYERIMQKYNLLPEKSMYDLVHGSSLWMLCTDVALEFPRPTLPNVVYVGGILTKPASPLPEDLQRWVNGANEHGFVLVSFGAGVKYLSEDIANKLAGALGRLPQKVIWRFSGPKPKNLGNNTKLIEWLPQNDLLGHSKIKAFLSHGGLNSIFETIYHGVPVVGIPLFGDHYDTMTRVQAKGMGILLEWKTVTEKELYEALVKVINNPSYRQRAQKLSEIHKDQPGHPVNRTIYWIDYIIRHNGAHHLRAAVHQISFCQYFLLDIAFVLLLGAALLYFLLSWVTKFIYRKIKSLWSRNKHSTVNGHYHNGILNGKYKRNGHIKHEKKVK
Put plainly: CGT enzyme assay, RapidFire/MS/MS readout (Table 1 ranges with one asterisk *). The class given is biochemical. The conditions noted are these: RapidFire method (range with one asterisk *). The essentials:
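IC50s come from variable-slope dose-response fits of internal-standard-normalized C6-NBD-dihydro-galactosylceramide, measured by RapidFire/MS/MS (ESI negative). Reactions: 1 h, 37 °C, human CGT-expressing CHO lysate (4 μg), 0.001–50 μM compound, 10 μM NBD-dihydro-ceramide, 17.5 μM UDP-galactose, 0.5% DMSO, pH 7.2; 0.01% Tween 80 added for ** values.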
In the case of `NC1CC2CCC(C1)N2C(=O)[C@H](NS(=O)(=O)c1ccc2cc(OC3CCCC3)ccc2c1)C(F)(F)c1ccc(Oc2ccccc2)cc1` (stereo partly drawn) [Compound 86-2, N-((2S)-3-(3-amino-8-azabicyclo[3.2.1]octan-8-yl)-1,1-difluoro-3-oxo-1-(4-phenoxyphenyl)propan-2-yl)-6-(cyclopentyloxy)naphthalene-2-sulfonamide trifluoroacetate], the IC50 (commonly the midpoint of a concentration-inhibition curve) was 1000 to 10000 nM.

In turn, `CN([C@H](C(=O)N1C2CCC1CC(N)C2)C(F)(F)c1ccc(Oc2ccccc2)cc1)S(=O)(=O)c1ccc2cc(OC3CCCC3)ccc2c1` (stereo partly drawn) [Compound 87-1, N-((2R)-3-(3-amino-8-azabicyclo[3.2.1]octan-8-yl)-1,1-difluoro-3-oxo-1-(4-phenoxyphenyl)propan-2-yl)-6-(cyclopentyloxy)-N-methylnaphthalene-2-sulfonamide trifluoroacetate] showed an IC50 of less than 1000 nM. The compound `CN([C@@H](C(=O)N1C2CCC1CC(N)C2)C(F)(F)c1ccc(Oc2ccccc2)cc1)S(=O)(=O)c1ccc2cc(OC3CCCC3)ccc2c1` (stereo partly drawn) [Compound 87-2, N-((2S)-3-(3-amino-8-azabicyclo[3.2.1]octan-8-yl)-1,1-difluoro-3-oxo-1-(4-phenoxyphenyl)propan-2-yl)-6-(cyclopentyloxy)-N-methylnaphthalene-2-sulfonamide trifluoroacetate] yielded an IC50 of 1000 to 10000 nM. As for `NC1CC2CCC(C1)N2C(=O)[C@@H](NS(=O)(=O)c1ccc2c(cnn2CC2CCCC2)c1)C(F)(F)c1ccc(Cl)cc1` (stereo partly drawn) [Compound 88-1, N-((2R)-3-(3-amino-8-azabicyclo[3.2.1]octan-8-yl)-1-(4-chlorophenyl)-1,1-difluoro-3-oxopropan-2-yl)-1-(cyclopentylmethyl)-1H-indazole-5-sulfonamide], the figure is 1000 to 10000 nM; as for `NC1CC2CCC(C1)N2C(=O)[C@H](NS(=O)(=O)c1ccc2c(cnn2CC2CCCC2)c1)C(F)(F)c1ccc(Cl)cc1` (stereo partly drawn) [Compound 88-2, N-((2S)-3-(3-amino-8-azabicyclo[3.2.1]octan-8-yl)-1-(4-chlorophenyl)-1,1-difluoro-3-oxopropan-2-yl)-1-(cyclopentylmethyl)-1H-indazole-5-sulfonamide], 30000 to 100000 nM. As for `COc1cc(C(F)(F)[C@H](NS(=O)(=O)c2ccc3cc(OC4CCCC4)ccc3c2)C(=O)N2C3CCC2CC(N)C3)ccc1Br` (stereo partly drawn) [Compound 89-1, N-((2R)-3-(3-amino-8-azabicyclo[3.2.1]octan-8-yl)-1-(4-bromo-3-methoxyphenyl)-1,1-difluoro-3-oxopropan-2-yl)-6-(cyclopentyloxy)naphthalene-2-sulfonamide], the figure is less than 1000 nM; as for `COc1cc(C(F)(F)[C@@H](NS(=O)(=O)c2ccc3cc(OC4CCCC4)ccc3c2)C(=O)N2C3CCC2CC(N)C3)ccc1Br` (stereo partly drawn) [Compound 89-2, N-((2S)-3-(3-amino-8-azabicyclo[3.2.1]octan-8-yl)-1-(4-bromo-3-methoxyphenyl)-1,1-difluoro-3-oxopropan-2-yl)-6-(cyclopentyloxy)naphthalene-2-sulfonamide], 1000 to 10000 nM; as for `CCCCOc1cccc(C(F)(F)[C@H](NS(=O)(=O)c2ccc3cc(OC4CCCC4)ccc3c2)C(=O)N2C3CCC2CC(N)C3)c1` (stereo partly drawn) [Compound 90-1, N-((2R)-3-(3-amino-8-azabicyclo[3.2.1]octan-8-yl)-1-(3-butoxyphenyl)-1,1-difluoro-3-oxopropan-2-yl)-6-(cyclopentyloxy)naphthalene-2-sulfonamide trifluoroacetate], less than 1000 nM. Take `CCCCOc1cccc(C(F)(F)[C@@H](NS(=O)(=O)c2ccc3cc(OC4CCCC4)ccc3c2)C(=O)N2C3CCC2CC(N)C3)c1` (stereo partly drawn) [Compound 90-2, N-((2S)-3-(3-amino-8-azabicyclo[3.2.1]octan-8-yl)-1-(3-butoxyphenyl)-1,1-difluoro-3-oxopropan-2-yl)-6-(cyclopentyloxy)naphthalene-2-sulfonamide trifluoroacetate]: the IC50 is 1000 to 10000 nM.
